Earlier results as cited in PubChem BioAssay AID1259409 (Chemical Carcinogenesis Research Information System (CCRIS), 2018).

Tested on: rodent chemically induced tumor inhibition, incidence and multiplicity
Test: CCRIS tumor inhibitor studies
Conditions: Dose [Inhibitor]: 0, Route [Inhibitor]: ORAL, Species: RAT, Promoter: NONE USED

Structure (SMILES): CCCCCCCCCCCCC(=O)COC1=C(O)C(=O)O[C@@H]1[C@@H](O)CO
- tumour outcome (control, treated, inhibition, significance) (Carcinogen: 2-AMINO-1-METHYL-6-PHENYLIMIDAZO[4,5-B]PYRIDINE, 105650-23-5, 1% IN DIET FOR 52 WK CONCURRENTLY WITH CARCINOGEN TREATMENT (STUDY DURATION: 52 WK), Strain/Sex: F344/FEMALE, Target Tissue: Type of Lesion: LARGE INTESTINE: ADENOMA OR CARCINOMA, Dose [Carcinogen]: 0.02% IN DIET FOR 52 WK): 2/18 (11%), 1/20 (5%), 55%, not significant
- tumour outcome (control, treated, inhibition, significance) (Carcinogen: 2-AMINO-1-METHYL-6-PHENYLIMIDAZO[4,5-B]PYRIDINE, 105650-23-5, 1% IN DIET FOR 52 WK CONCURRENTLY WITH CARCINOGEN TREATMENT (STUDY DURATION: 52 WK), Strain/Sex: F344/FEMALE, Target Tissue: Type of Lesion: MAMMARY GLAND: ADENOCARCINOMA, Dose [Carcinogen]: 0.02% IN DIET FOR 52 WK): 8/20 (40%), 5/21 (24%), 40%, not significant
- tumour outcome (control, treated, inhibition, significance) (Carcinogen: DIETHYLNITROSAMINE, 55-18-5, N-METHYL-N-NITROSOUREA, 684-93-5, N-BUTYL-N-(4-HYDROXYBUTYL)NITROSAMINE, 3817-11-6, DIMETHY, Carcinogen: DIETHYLNITROSAMINE, 55-18-5, N-METHYL-N-NITROSOUREA, 684-93-5, N-BUTYL-N-(4-HYDROXYBUTYL)NITROSAMINE, 3817-11-6, DIMETHY, 1% IN THE DIET FOR 24 WK BEGINNING 1 D POST CARCINOGEN TREATMENT (STUDY DURATION: 28 WK), Strain/Sex: F344/MALE, Target Tissue: Type of Lesion: LARGE INTESTINE: CARCINOMA, Dose [Carcinogen]: 100 MG/KG BW DEN ONCE FOLLOWED BY 20 MG/KG BW MNU 4 TIMES AND 0.05% BBN IN DRINKING WATER DURING FIRST 2 WK THEN 40 MG/K): 7%, 0%, 100%, not significant
- tumour outcome (control, treated, inhibition, significance) (Carcinogen: DIETHYLNITROSAMINE, 55-18-5, N-METHYL-N-NITROSOUREA, 684-93-5, N-BUTYL-N-(4-HYDROXYBUTYL)NITROSAMINE, 3817-11-6, DIMETHY, Carcinogen: DIETHYLNITROSAMINE, 55-18-5, N-METHYL-N-NITROSOUREA, 684-93-5, N-BUTYL-N-(4-HYDROXYBUTYL)NITROSAMINE, 3817-11-6, DIMETHY, 1% IN THE DIET FOR 24 WK BEGINNING 1 DAY POST CARCINOGEN TREATMENT (STUDY DURATION: 28 WK ), Strain/Sex: F344/MALE, Target Tissue: Type of Lesion: URINARY BLADDER: CARCINOMA, Dose [Carcinogen]: 100 MG/KG BW DEN ONCE FOLLOWED BY 20 MG/KG BW MNU 4 TIMES AND 0.05% BBN IN DRINKING WATER DURING FIRST 2 WK THEN 40 MG/K): 7%, 0%, 100%, not significant
- tumour outcome (control, treated, inhibition, significance) (Carcinogen: DIETHYLNITROSAMINE, 55-18-5, N-METHYL-N-NITROSOUREA, 684-93-5, N-BUTYL-N-(4-HYDROXYBUTYL)NITROSAMINE, 3817-11-6, DIMETHY, Carcinogen: DIETHYLNITROSAMINE, 55-18-5, N-METHYL-N-NITROSOUREA, 684-93-5, N-BUTYL-N-(4-HYDROXYBUTYL)NITROSAMINE, 3817-11-6, DIMETHY, 1% IN THE DIET FOR 24 WK BEGINNING 1 DAY POST CARCINOGEN TREATMENT (STUDY DURATION: 28 WK), Strain/Sex: F344/MALE, Target Tissue: Type of Lesion: LARGE INTESTINE: ADENOMA, Dose [Carcinogen]: 100 MG/KG BW DEN ONCE FOLLOWED BY 20 MG/KG BW MNU 4 TIMES AND 0.05% BBN IN DRINKING WATER DURING FIRST 2 WK THEN 40 MG/K): 27%, 13%, 52%, not significant
- tumour outcome (control, treated, inhibition, significance) (Carcinogen: DIETHYLNITROSAMINE, 55-18-5, N-METHYL-N-NITROSOUREA, 684-93-5, N-BUTYL-N-(4-HYDROXYBUTYL)NITROSAMINE, 3817-11-6, DIMETHY, Carcinogen: DIETHYLNITROSAMINE, 55-18-5, N-METHYL-N-NITROSOUREA, 684-93-5, N-BUTYL-N-(4-HYDROXYBUTYL)NITROSAMINE, 3817-11-6, DIMETHY, 1% IN THE DIET FOR 24 WK BEGINNING 1 DAY POST CARCINOGEN TREATMENT (STUDY DURATION: 28 WK), Strain/Sex: F344/MALE, Target Tissue: Type of Lesion: SMALL INTESTINE: ADENOMA, Dose [Carcinogen]: 100 MG/KG BW DEN ONCE FOLLOWED BY 20 MG/KG BW MNU 4 TIMES AND 0.05% BBN IN DRINKING WATER DURING FIRST 2 WK THEN 40 MG/K): 33%, 20%, 39%, not significant
- tumour outcome (control, treated, inhibition, significance) (Carcinogen: DIETHYLNITROSAMINE, 55-18-5, N-METHYL-N-NITROSOUREA, 684-93-5, N-BUTYL-N-(4-HYDROXYBUTYL)NITROSAMINE, 3817-11-6, DIMETHY, Carcinogen: DIETHYLNITROSAMINE, 55-18-5, N-METHYL-N-NITROSOUREA, 684-93-5, N-BUTYL-N-(4-HYDROXYBUTYL)NITROSAMINE, 3817-11-6, DIMETHY, 1% IN THE DIET FOR 24 WK BEGINNING 1 DAY POST CARCINOGEN TREATMENT (STUDY DURATION: 28 WK), Strain/Sex: F344/MALE, Target Tissue: Type of Lesion: SMALL INTESTINE: CARCINOMA, Dose [Carcinogen]: 100 MG/KG BW DEN ONCE FOLLOWED BY 20 MG/KG BW MNU 4 TIMES AND 0.05% BBN IN DRINKING WATER DURING FIRST 2 WK THEN 40 MG/K): 7%, 20%, -185%, not significant
- tumour outcome (control, treated, inhibition, significance) (Carcinogen: DIETHYLNITROSAMINE, 55-18-5, N-METHYL-N-NITROSOUREA, 684-93-5, N-BUTYL-N-(4-HYDROXYBUTYL)NITROSAMINE, 3817-11-6, DIMETHY, Carcinogen: DIETHYLNITROSAMINE, 55-18-5, N-METHYL-N-NITROSOUREA, 684-93-5, N-BUTYL-N-(4-HYDROXYBUTYL)NITROSAMINE, 3817-11-6, DIMETHY, 1% IN THE DIET FOR 24 WK BEGINNING 1 DAY POST CARCINOGEN TREATMENT (STUDY DURATION: 28 WK), Strain/Sex: F344/MALE, Target Tissue: Type of Lesion: THYROID: CARCINOMA, Dose [Carcinogen]: 100 MG/KG BW DEN ONCE FOLLOWED BY 20 MG/KG BW MNU 4 TIMES AND 0.05% BBN IN DRINKING WATER DURING FIRST 2 WK THEN 40 MG/K): 7%, 0%, 100%, not significant
